# Reference: patent US10414763B2 (CANCER RESEARCH TECHNOLOGY LIMITED, priority 2014, dated 2019)
# Biological target: T1, full-length human PKCι (Homo sapiens, UniProt P41743)
# T1 construct: Recombinant, full-length human PKCι expressed in Sf21 insect cells is also commercially available; purchased EMD Millipore; host or cells: Sf21 insect cells (baculovirus)
# T1 sequence (P41743 1-596): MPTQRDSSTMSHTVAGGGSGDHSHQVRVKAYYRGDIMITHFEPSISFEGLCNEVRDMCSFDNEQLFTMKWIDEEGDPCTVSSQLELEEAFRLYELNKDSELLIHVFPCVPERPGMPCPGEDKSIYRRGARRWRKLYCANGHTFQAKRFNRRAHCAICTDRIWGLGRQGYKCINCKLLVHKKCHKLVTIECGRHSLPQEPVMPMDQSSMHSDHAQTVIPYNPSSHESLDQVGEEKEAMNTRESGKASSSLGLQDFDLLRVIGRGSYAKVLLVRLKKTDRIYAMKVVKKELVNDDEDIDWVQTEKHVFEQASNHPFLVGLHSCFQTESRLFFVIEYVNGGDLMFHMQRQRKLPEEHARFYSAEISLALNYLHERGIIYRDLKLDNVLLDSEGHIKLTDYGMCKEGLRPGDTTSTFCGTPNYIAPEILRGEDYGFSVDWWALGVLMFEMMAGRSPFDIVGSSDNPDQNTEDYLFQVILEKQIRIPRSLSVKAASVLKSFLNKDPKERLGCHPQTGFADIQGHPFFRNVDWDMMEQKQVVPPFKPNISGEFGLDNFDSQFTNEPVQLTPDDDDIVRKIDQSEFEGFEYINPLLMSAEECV
# Test: PKCι IC50 IMAP fluorescence polarisation assay, full-length enzyme, 150 μM ATP
# Assay type: biochemical
# Conditions: read-out: IC50 in IMAP assay against full length PKCi at 150 μM ATP
# Method in brief: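 IMAP fluorescence polarisation kinase assay: 15 pM baculovirus-expressed human PKCiota with 100 nM FAM-pseudosubstrate peptide and 150 μM ATP, 1 h at 25 °C. IMAP detection reagent then 2 h at 25 °C before FP measurement. Inhibition referenced to no-compound and no-enzyme controls for IC50 fitting.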
row,Compound,IC50 [nM]
1,"CN(c1nc(-c2ccnc3[nH]c(-c4cc(F)ccc4Cl)cc23)nc2cncc(C3CC3)c12)[C@@H]1CCNC[C@@]1(C)O (racemic) [Example 359, rac-(3R,4R)-4-({2-[2-(2-Chloro-5-fluoro-phenyl)-1H-pyrrolo[2,3-b]pyridin-4-yl]-5-cyclopropyl-pyrido[3,4-d]pyrimidin-4-yl}-methyl-amino)-3-methyl-piperidin-3-ol]",< 100
2,"O[C@H]1CNCC[C@H]1Nc1nc(-c2ccnc(Nc3nc(F)ccc3F)c2)nc2cncc(C3CCC3)c12 (racemic) [Example 381, rac-(3S,4R)-4-{5-Cyclobutyl-2-[2-(3,6-difluoro-pyridin-2-ylamino)-pyridin-4-yl]-pyrido[3,4-d]pyrimidin-4-ylamino}-piperidin-3-ol]",< 100
3,"C[C@H]1C[C@@H](Nc2nc(-c3ccnc(Nc4nc(F)ccc4F)c3)nc3cncc(C4CCC4)c23)CCN1 (racemic) [Example 386, {5-Cyclobutyl-2-[2-(3,6-difluoro-pyridin-2-ylamino)-pyridin-4-yl]-pyrido[3,4-d]pyrimidin-4-yl}-(rac-(2S,4S)-2-methyl-piperidin-4-yl)-amine]",< 100
4,"C[C@@H]1C[C@@H](Nc2nc(-c3ccnc(Nc4nc(F)ccc4F)c3)nc3cncc(C4CCC4)c23)CCN1 (racemic) [Example 387, {5-Cyclobutyl-2-[2-(3,6-difluoro-pyridin-2-ylamino)-pyridin-4-yl]-pyrido[3,4-d]pyrimidin-4-yl}-(rac-(2R,4S)-2-methyl-piperidin-4-yl)-amine]",< 100
5,"C[C@@H]1CNCC[C@H]1Nc1nc(-c2ccnc(Nc3nc(F)ccc3F)c2)nc2cncc(C3CCC3)c12 (single isomer, unassigned) [Example 279, {5-Cyclobutyl-2-[2-(3,6-difluoro-pyridin-2-ylamino)-pyridin-4-yl]-pyrido[3,4-d]pyrimidin-4-yl}-((3R,4R)-3-methyl-piperidin-4-yl)-amine or enantiomer]",< 100
6,"C[C@H]1CNCC[C@@H]1Nc1nc(-c2ccnc(Nc3nc(F)ccc3F)c2)nc2cncc(C3CCC3)c12 (single isomer, unassigned) [Example 280, {5-Cyclobutyl-2-[2-(3,6-difluoro-pyridin-2-ylamino)-pyridin-4-yl]-pyrido[3,4-d]pyrimidin-4-yl}-((3S,4S)-3-methyl-piperidin-4-yl)-amine or enantiomer]",< 100
7,"C[C@@H]1CNCC[C@@H]1Nc1nc(-c2ccnc(Nc3nc(F)ccc3F)c2)nc2cncc(C3CCC3)c12 (single isomer, unassigned) [Example 297, {5-Cyclobutyl-2-[2-(3,6-difluoro-pyridin-2-ylamino)-pyridin-4-yl]-pyrido[3,4-d]pyrimidin-4-yl}-((3R,4S)-3-methyl-piperidin-4-yl)-amine or enantiomer]",< 100
8,"C[C@H]1CNCC[C@H]1Nc1nc(-c2ccnc(Nc3nc(F)ccc3F)c2)nc2cncc(C3CCC3)c12 (single isomer, unassigned) [Example 298, {5-Cyclobutyl-2-[2-(3,6-difluoro-pyridin-2-ylamino)-pyridin-4-yl]-pyrido[3,4-d]pyrimidin-4-yl}-((3S,4R)-3-methyl-piperidin-4-yl)-amine or enantiomer]",< 100
9,"C[C@H]1CNCC[C@@H]1Nc1nc(-c2ccnc(Nc3nc(F)ccc3F)c2)nc2cncc(C3CC3)c12 (single isomer, unassigned) [Example 334, 5-Cyclopropyl-2-[2-[(3,6-difluoro-2-pyridyl)amino]-4-pyridyl]-N-[(3S,4S)-3-methyl-4-piperidyl]pyrido[3,4-d]pyrimidin-4-amine or enantiomer]",< 100
10,"C[C@@H]1CNCC[C@H]1Nc1nc(-c2ccnc(Nc3nc(F)ccc3F)c2)nc2cncc(C3CC3)c12 (single isomer, unassigned) [Example 335, 5-Cyclopropyl-2-[2-[(3,6-difluoro-2-pyridyl)amino]-4-pyridyl]-N-[(3R,4R)-3-methyl-4-piperidyl]pyrido[3,4-d]pyrimidin-4-amine or enantiomer]",< 100
11,"C[C@@H]1CNCC[C@H]1Nc1nc(-c2ccnc(Nc3ncccc3F)c2)nc2cncc(C3CCC3)c12 (single isomer, unassigned) [Example 341, 5-Cyclobutyl-2-[2-[(3-fluoro-2-pyridyl)amino]-4-pyridyl]-N-[(3R,4R)-3-methyl-4-piperidyl]pyrido[3,4-d]pyrimidin-4-amine or enantiomer]",< 100
12,"C[C@H]1CNCC[C@@H]1Nc1nc(-c2ccnc(Nc3ncccc3F)c2)nc2cncc(C3CCC3)c12 (single isomer, unassigned) [Example 342, 5-Cyclobutyl-2-[2-[(3-fluoro-2-pyridyl)amino]-4-pyridyl]-N-[(3S,4S)-3-methyl-4-piperidyl]pyrido[3,4-d]pyrimidin-4-amine or enantiomer]",< 100
13,"CC1(C)CNCCC1Nc1nc(-c2ccnc3[nH]c(-c4cc(Cl)ccc4Cl)cc23)nc2cncc(C3CC3)c12 (stereo in doubt) [Example 353, {5-Cyclopropyl-2-[2-(2,5-dichloro-phenyl)-1H-pyrrolo[2,3-b]pyridin-4-yl]-pyrido[3,4-d]pyrimidin-4-yl}-((S)-3,3-dimethyl-piperidin-4-yl)-amine]",< 100
14,"Cc1cn2c(n1)[nH]c1nccc(-c3nc(N4CCNCC4)c4c(C5CCC5)cncc4n3)c12 [Example 3, 4-(5-Cyclobutyl-4-piperazin-1-yl-pyrido[3,4-d]pyrimidin-2-yl)-2-methyl-8H-1,3a,7,8-tetraaza-cyclopent[a]indene]",100 to 1000
15,"OC[C@@H]1CNCCN1c1nc(-c2ccnc3[nH]c(C(F)(F)F)cc23)nc2cncc(C3CC3)c12 [Example 4, {(S)-1-[5-Cyclopropyl-2-(2-trifluoromethyl-1H-pyrrolo[2,3-b]pyridin-4-yl)-pyrido[3,4-d]pyrimidin-4-yl]-piperazin-2-yl}-methanol]",100 to 1000
16,"OC[C@@H]1CNCCN1c1nc(-c2ccnc3[nH]c(C(F)(F)F)cc23)nc2cncc(C3CCC3)c12 [Example 5, {(S)-1-[5-Cyclobutyl-2-(2-trifluoromethyl-1H-pyrrolo[2,3-b]pyridin-4-yl)-pyrido[3,4-d]pyrimidin-4-yl]-piperazin-2-yl}-methanol]",1000 to 10000
17,"OC[C@H]1CNCCN1c1nc(-c2ccnc3[nH]c(C(F)(F)F)cc23)nc2cncc(C3CC3)c12 [Example 6, {(R)-1-[5-Cyclopropyl-2-(2-trifluoromethyl-1H-pyrrolo[2,3-b]pyridin-4-yl)-pyrido[3,4-d]pyrimidin-4-yl]-piperazin-2-yl}-methanol]",100 to 1000
18,"OC[C@H]1CNCCN1c1nc(-c2ccnc3[nH]c(C(F)(F)F)cc23)nc2cncc(C3CCC3)c12 [Example 7, {(R)-1-[5-Cyclobutyl-2-(2-trifluoromethyl-1H-pyrrolo[2,3-b]pyridin-4-yl)-pyrido[3,4-d]pyrimidin-4-yl]-piperazin-2-yl}-methanol]",100 to 1000
19,"c1ccc2c(c1)[nH]c1nccc(-c3nc(N4CC[C@@H]5CNC[C@@H]54)c4c(C5CCC5)cncc4n3)c12 [Example 9, 4-((R)-5-Cyclobutyl-4-(R)-hexahydro-pyrrolo[3,4-b]pyrrol-1-yl-pyrido[3,4-d]pyrimidin-2-yl)-9H-pyrido[2,3-b]indole]",< 100
20,"c1ccc2c(c1)[nH]c1nccc(-c3nc(N4CC[C@H]5CNC[C@H]54)c4c(C5CCC5)cncc4n3)c12 [Example 10, 4-((S)-5-Cyclobutyl-4 (S)-hexahydro-pyrrolo[3,4-b]pyrrol-1-yl-pyrido[3,4-d]pyrimidin-2-yl)-9H-pyrido[2,3-b]indole]",< 100
21,"N[C@H]1C[C@H](Nc2nc(-c3ccnc4[nH]c5ccccc5c34)nc3cncc(C4CCC4)c23)C1 [Example 11, trans-N-[5-Cyclobutyl-2-(9H-pyrido[2,3-b]indol-4-yl)-pyrido[3,4-d]pyrimidin-4-yl]-cyclobutane-1,3-diamine]",< 100
22,"CC1(c2cc3c(-c4nc(N[C@H]5CC[C@H](N)CC5)c5c(C6CC6)cncc5n4)ccnc3[nH]2)CC1(F)F (stereo partly drawn) [Example 12, trans-N-{5-Cyclopropyl-2-[2-(2,2 difluoro-1-methyl-cyclopropyl)-1H-pyrrolo[2,3-b]pyridin-4-yl]-pyrido[3,4-d]pyrimidin-4-yl}-cyclohexane-1,4-diamine]",< 100
23,"OC1(c2cc3c(-c4nc(N5CCNCC5)c5c(C6CCC6)cncc5n4)ccnc3[nH]2)CCSC1 (stereo not drawn) [Example 13, 3-[4-(5-Cyclobutyl-4-piperazin-1-yl-pyrido[3,4-d]pyrimidin-2-yl)-1H-pyrrolo[2,3-b]pyridin-2-yl]-tetrahydro-thiophen-3-ol]",< 100
24,"c1ccc(Sc2cc3c(-c4nc(N5CCNCC5)c5c(C6CC6)cncc5n4)ccnc3[nH]2)cc1 [Example 14, 5-Cyclopropyl-2-(2-phenylsulfanyl-1H-pyrrolo[2,3-b]pyridin-4-yl)-4-piperdzin-1-yl-pyrido[3,4-d] pyrimidine]",< 100
